Key:
[1] = Liver microsome stability; assay type: in vitro ADME, human; conditions: amount of substrate remaining; compound 1 μM, 30 minutes, 37° C., NADPH
Experimental: (§1) The stability of liver microsomes due to the compounds prepared according to Examples 1 to 175 was confirmed. Specifically, four types of liver microsomes (human, dog, rat, and mouse, each 0.25 mg/mL), a 0.1 M phosphate buffer solution (pH 7.4), and each of the compounds at a concentration of 1 μM were mixed and pre-cultured at 37° C. for 5 minutes and further cultured at 37° C. for 30 minutes together with an NADPH generation system solution added thereto. Thereafter, the reaction was terminated by adding an acetonitrile solution containing an internal standard material (chloropropamide) and centrifuged for 5 minutes (14,000 rpm, 4° C.), and then a supernatant was injected into an LC-MS/MS system for analysis of substrate drugs to thereby evaluate metabolic stability due to 8 types of compounds.
(§2) The amount of the substrate remaining after the reaction was analyzed using the Shimadzu Nexera XR system and TSQ Vantage (Thermo). In an HPLC column, Kinetex XB-C18 (2.1 mm×100 mm, particle size of 2.6 μm; Phenomenex, USA) was used, and mobile phases were (A) distilled water containing 0.1% formic acid and (B) acetonitrile containing 0.1% formic acid. Analyst software (version 1.6.3) and Xcalibur (version 1.6.1) were used for data analysis.

[2] = Liver microsome stability; assay type: in vitro ADME, mouse; conditions: amount of substrate remaining; compound 1 μM, 30 minutes, 37° C., NADPH
Experimental: as §1, §2

tau protein = biological target: T1, tau protein (Homo sapiens, UniProt P10636); assay: Tau-BiFC cell model: inhibition of tau protein aggregation; assay type: cell-based; conditions: for remaining activity at 10 µM / remaining activity at 3 µM: 48 h, Forskolin-only group = 100% tau protein-aggregated state; for remaining activity at 10 µM: compound 10 μM, BiFC fluorescence, read-out: Response (% @10 μM); for IC50: Tau BiFC in cells, with Forskolin 30 μM, 48 hours; for remaining activity at 3 µM: compounds marked *: measured at 3 μM, read-out: Response
T1 construct: fused on or other part: Split fluorescent-protein halves for BiFC are fused to tau; In the published tau-BiFC line these are Venus VN173 and VC155
T1 sequence (P10636 2-441 isoform P10636-8 limits assumed): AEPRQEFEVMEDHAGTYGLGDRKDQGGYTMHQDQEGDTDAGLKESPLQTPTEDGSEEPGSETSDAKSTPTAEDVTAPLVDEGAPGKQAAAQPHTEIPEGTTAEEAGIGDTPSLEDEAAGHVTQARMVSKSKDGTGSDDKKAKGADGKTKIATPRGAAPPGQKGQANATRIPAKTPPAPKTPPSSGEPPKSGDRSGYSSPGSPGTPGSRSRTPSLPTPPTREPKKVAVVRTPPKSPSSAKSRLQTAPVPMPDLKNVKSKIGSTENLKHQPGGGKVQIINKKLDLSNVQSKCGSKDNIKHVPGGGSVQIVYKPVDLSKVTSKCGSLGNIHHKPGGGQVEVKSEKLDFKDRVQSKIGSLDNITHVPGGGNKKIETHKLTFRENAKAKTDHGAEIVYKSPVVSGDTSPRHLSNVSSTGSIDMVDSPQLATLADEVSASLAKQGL
In short: (§3)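 Tau-BiFC cells were exposed for 48 h to compound (1, 3, 10 μM for screening; 0.03–30 μM for dose-response) plus 30 μM Forskolin to induce aggregation. BiFC fluorescence was normalised to Forskolin-only minus untreated controls, with IC50 from nonlinear regression. Viability was Hoechst-stained nuclei counts relative to Forskolin-only wells.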

Tau-BiFC cells = assay: Cell viability (cytotoxicity) in tau-BiFC cells, count of stained nuclei; assay type: cell-based; conditions: Forskolin-only group = 100% cell viability; for Cell viability (% @10 μM): compound 10 μM; for Cell viability: compounds marked *: measured at 3 μM
In short: as §3

[3] = Liver microsome stability; assay type: in vitro ADME, rat; conditions: amount of substrate remaining; compound 1 μM, 30 minutes, 37° C., NADPH
Experimental: as §1, §2

[4] = Liver microsome stability; assay type: in vitro ADME, dog; conditions: amount of substrate remaining; compound 1 μM, 30 minutes, 37° C., NADPH
Experimental: as §1, §2

CYP3A4 = biological target: T2, CYP3A4 (Homo sapiens, UniProt P08684); assay: Inhibitory effect on CYP coenzyme activity, human liver microsomes; assay type: in vitro ADME; conditions: compound 10 μM; human liver microsomes 0.25 mg/mL; substrate midazolam; 15 minutes
T2 construct: human liver microsomes (0.25 mg/mL); from tissue; host or cells: human liver microsomes
T2 sequence (P08684 whole entry): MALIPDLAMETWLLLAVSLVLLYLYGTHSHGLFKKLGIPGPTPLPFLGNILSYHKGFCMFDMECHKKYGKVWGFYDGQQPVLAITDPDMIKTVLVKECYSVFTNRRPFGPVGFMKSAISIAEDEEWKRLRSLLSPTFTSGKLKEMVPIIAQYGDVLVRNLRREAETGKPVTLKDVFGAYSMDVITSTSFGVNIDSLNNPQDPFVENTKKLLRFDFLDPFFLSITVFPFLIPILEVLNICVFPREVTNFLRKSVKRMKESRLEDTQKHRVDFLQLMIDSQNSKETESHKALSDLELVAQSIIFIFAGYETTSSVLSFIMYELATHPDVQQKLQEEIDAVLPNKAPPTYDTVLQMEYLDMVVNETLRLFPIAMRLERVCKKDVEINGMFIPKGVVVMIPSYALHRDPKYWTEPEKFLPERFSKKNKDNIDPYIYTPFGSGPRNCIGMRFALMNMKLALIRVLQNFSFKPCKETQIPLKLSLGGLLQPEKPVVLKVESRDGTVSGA
Experimental: (§4) The inhibitory effects of the compounds prepared according to Examples 1 to 175 on CYP coenzyme activity were identified. Specifically, human liver microsomes (0.25 mg/mL), a 0.1 M phosphate buffer solution (pH 7.4), a substrate drug cocktail of five types of drug metabolism enzymes (50 μM phenacetin, 10 μM diclofenac, 100 μM S-mephenytoin, 5 μM dextromethorphan, and 2.5 μM midazolam), and the compound at a concentration of 0 μM or 10 μM were mixed and pre-cultured at 37° C. for 5 minutes, and then further cultured at 37° C. for 15 minutes together with an NADPH generation system solution added thereto. Thereafter, the reaction was terminated by adding an acetonitrile solution containing an internal standard material (terfenadine) and centrifuged for 5 minutes (14,000 rpm, 4° C.), and then a supernatant was injected into an LC-MS/MS system for simultaneous analysis of metabolites of the substrate drugs to thereby evaluate the inhibitory effects on drug metabolism.
(§5) Metabolites of each CYP coenzyme indicator drug generated through the reaction were analyzed using the Shimadzu Nexera XR system and TSQ Vantage (Thermo). In an HPLC column, Kinetex C18 (2.1 mm×100 mm, 2.6 μm, particle size; Phenomenex, USA) was used, and mobile phases were (A) distilled water containing 0.1% formic acid and (B) acetonitrile containing 0.1% formic acid, and a gradient program shown in Table 3 was applied thereto.
(§6) The generated metabolites were quantified using a multiple reaction monitoring (MRM) quantification mode, and Xcalibur (version 1.6.1) was used for data analysis. Inhibitory effects of the novel compound prepared according to the examples of the present invention on CYP coenzyme activity are shown in Table 4 below.

CYP2C9 = biological target: T3, CYP2C9 (Homo sapiens, UniProt P11712); assay: as above; assay type: in vitro ADME; conditions: compound 10 μM; human liver microsomes 0.25 mg/mL; substrate diclofenac; 15 minutes
T3 construct: human liver microsomes (0.25 mg/mL); from tissue; host or cells: human liver microsomes
T3 sequence (P11712 whole entry): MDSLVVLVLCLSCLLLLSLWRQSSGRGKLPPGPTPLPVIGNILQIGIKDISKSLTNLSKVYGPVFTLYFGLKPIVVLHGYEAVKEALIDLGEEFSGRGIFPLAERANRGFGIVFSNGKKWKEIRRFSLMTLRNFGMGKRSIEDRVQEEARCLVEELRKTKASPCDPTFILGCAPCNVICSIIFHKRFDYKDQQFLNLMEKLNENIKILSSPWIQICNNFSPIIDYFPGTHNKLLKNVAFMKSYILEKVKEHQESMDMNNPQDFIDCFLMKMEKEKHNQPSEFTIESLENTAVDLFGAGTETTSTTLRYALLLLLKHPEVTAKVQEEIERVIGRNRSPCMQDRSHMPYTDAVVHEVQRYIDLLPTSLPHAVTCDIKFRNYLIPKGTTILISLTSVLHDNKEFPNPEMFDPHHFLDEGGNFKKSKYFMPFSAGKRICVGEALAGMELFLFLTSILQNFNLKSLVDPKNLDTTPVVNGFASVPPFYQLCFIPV
Experimental: as §4, §5, §6

CYP2D6 = biological target: T4, CYP2D6 (Homo sapiens, UniProt P10635); assay: as above; assay type: in vitro ADME; conditions: compound 10 μM; human liver microsomes 0.25 mg/mL; substrate dextromethorphan; 15 minutes
T4 construct: human liver microsomes (0.25 mg/mL); from tissue; host or cells: human liver microsomes
T4 sequence (P10635 whole entry): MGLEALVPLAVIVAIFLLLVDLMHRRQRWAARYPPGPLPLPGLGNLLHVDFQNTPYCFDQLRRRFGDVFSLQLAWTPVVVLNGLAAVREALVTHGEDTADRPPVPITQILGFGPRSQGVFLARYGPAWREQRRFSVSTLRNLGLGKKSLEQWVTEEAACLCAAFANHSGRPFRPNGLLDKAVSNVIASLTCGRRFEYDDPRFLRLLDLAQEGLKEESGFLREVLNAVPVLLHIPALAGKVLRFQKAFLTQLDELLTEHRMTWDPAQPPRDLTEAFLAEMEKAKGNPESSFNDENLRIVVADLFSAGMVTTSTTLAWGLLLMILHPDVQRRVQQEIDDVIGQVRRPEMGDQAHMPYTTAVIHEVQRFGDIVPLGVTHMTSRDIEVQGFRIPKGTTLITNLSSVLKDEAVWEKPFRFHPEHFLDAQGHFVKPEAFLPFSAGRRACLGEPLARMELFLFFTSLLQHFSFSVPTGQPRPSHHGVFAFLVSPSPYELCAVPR
Experimental: as §4, §5, §6

CYP2C19 = biological target: T5, CYP2C19 (Homo sapiens, UniProt P33261); assay: as above; assay type: in vitro ADME; conditions: compound 10 μM; human liver microsomes 0.25 mg/mL; substrate S-mephenytoin; 15 minutes
T5 construct: human liver microsomes (0.25 mg/mL); from tissue; host or cells: human liver microsomes
T5 sequence (P33261 whole entry): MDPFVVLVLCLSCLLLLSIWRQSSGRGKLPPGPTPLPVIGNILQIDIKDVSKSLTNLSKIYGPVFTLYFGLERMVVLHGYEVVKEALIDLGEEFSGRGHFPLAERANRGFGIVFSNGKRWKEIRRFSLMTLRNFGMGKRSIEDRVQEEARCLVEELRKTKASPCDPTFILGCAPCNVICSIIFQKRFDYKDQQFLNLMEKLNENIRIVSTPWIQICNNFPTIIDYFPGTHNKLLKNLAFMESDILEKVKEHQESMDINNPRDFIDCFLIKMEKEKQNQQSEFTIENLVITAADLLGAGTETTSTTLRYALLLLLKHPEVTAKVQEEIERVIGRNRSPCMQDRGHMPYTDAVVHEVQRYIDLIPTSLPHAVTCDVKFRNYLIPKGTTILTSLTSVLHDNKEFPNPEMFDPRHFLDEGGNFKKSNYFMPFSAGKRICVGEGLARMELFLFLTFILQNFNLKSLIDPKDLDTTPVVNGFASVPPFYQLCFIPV
Experimental: as §4, §5, §6

CYP1A2 = biological target: T6, CYP1A2 (Homo sapiens, UniProt P05177); assay: as above; assay type: in vitro ADME; conditions: compound 10 μM; human liver microsomes 0.25 mg/mL; substrate phenacetin; 15 minutes
T6 construct: human liver microsomes (0.25 mg/mL); from tissue; host or cells: human liver microsomes
T6 sequence (P05177 1-516): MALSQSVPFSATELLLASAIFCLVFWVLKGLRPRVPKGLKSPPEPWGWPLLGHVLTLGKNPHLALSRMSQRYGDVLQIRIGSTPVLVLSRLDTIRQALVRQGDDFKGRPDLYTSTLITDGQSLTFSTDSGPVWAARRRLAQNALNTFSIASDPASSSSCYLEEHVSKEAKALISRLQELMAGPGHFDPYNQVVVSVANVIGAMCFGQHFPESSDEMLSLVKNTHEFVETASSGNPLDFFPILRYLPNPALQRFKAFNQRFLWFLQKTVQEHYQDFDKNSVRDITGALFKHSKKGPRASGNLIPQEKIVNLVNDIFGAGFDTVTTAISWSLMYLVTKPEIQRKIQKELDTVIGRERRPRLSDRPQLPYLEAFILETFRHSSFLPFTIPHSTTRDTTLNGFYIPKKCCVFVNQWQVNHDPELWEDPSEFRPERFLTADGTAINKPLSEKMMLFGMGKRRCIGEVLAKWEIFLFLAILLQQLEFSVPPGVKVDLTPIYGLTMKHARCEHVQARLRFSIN
Experimental: as §4, §5, §6

| SMILES | Human (%) [1] [%] | Mouse (%) [2] [%] | remaining activity at 10 µM (tau protein) [%] | IC50 (tau protein) [nM] | Cell viability (% @10 μM) (Tau-BiFC cells) [%] | Rat (%) [3] [%] | Dog (%) [4] [%] | CYP3A4 (CYP3A4) | CYP2C9 (CYP2C9) | CYP2D6 (CYP2D6) | CYP2C19 (CYP2C19) | CYP1A2 (CYP1A2) | remaining activity at 3 µM (tau protein) [%] | Cell viability (Tau-BiFC cells) [%] |
| --- | --- | --- | --- | --- | --- | --- | --- | --- | --- | --- | --- | --- | --- | --- |
| N#CC(C#N)=NNc1ccc(NC(=O)c2cccc(C(F)(F)F)c2)nc1 [Compound 26, (6-(3-(trifluoromethyl)benzamido)pyridin-3-yl)carbonohydrazonoyl dicyanide] | 72.5 | 7.1 | 0 | 710 | 109.8 | 19.8 | 29.8 |  |  |  |  |  |  |  |
| N#CC(C#N)=NNc1ccc(Oc2ccccc2)nc1 [Compound 68, (6-phenoxypyridin-3-yl)carbonohydrazonoyl dicyanide] | 6.7 | 93.6 | 0 | 110 | 117 | 63 | 87.8 |  |  |  |  |  |  |  |
| N#CC(C#N)=NNc1ccc(Oc2cccc(F)c2)nc1 [Compound 69, (6-(3-fluorophenoxy)pyridin-3-yl)carbonohydrazonoyl dicyanide] | 8.4 | 81.6 | 0 | 260 | 119.4 | 75.6 | 94.8 |  |  |  |  |  |  |  |
| COc1cc(NN=C(C#N)C#N)ccc1C(=O)Nc1cnc(C)cn1 [Compound 104, (3-methoxy-4-(5-methylpyrazin-2-ylcarbamoyl)phenyl)carbonohydrazonoyl dicyanide] | 84.1 | 97.2 | 0 | 260 | 142 | 87.5 |  | 66.1 | 48.6 | >100 | 82.4 | 78.4 |  |  |
| N#CC(C#N)=NNc1ccc(NC(=O)c2ccoc2)nc1 [Compound 110, (6-(furan-3-carboxamido)pyridin-3-yl)carbonohydrazonoyl dicyanide] | 89.7 | 92.4 | 0 | 790 | 160.5 | 81.8 |  | 98.9 | 77.1 | 91.3 | 88.4 | 88.3 |  |  |
| Cc1cc(NN=C(C#N)C#N)ccc1OCc1ncccn1 [Compound 143, (3-methyl-4-(pyrimidin-2-ylmethoxy)phenyl)carbonohydrazonoyl dicyanide] | 78.3 | 50 |  |  |  | 57.6 |  | 90.3 | >100 | >100 | >100 | 95.9 | 11 | 125 |
| Cc1cc(NN=C(C#N)C#N)ccc1OCc1cnccn1 [Compound 144, (3-methyl-4-(pyrazin-2-ylmethoxy)phenyl)carbonohydrazonoyl dicyanide] | 74.9 | 80.9 |  | 1280 |  | 92.4 |  | 89.2 | 24.5 | >100 | >100 | 37.7 | -20 | 111 |
| Cc1cc(NN=C(C#N)C#N)ccc1OCc1cccnc1 [Compound 145, (3-methyl-4-(pyridin-3-ylmethoxy)phenyl)carbonohydrazonoyl dicyanide] | 93.7 | 93.3 |  | 126 |  | 91.2 |  | 22 | 2.2 | 39.1 | 46.5 | 5.3 | -49 | 95 |
| Cc1cc(NN=C(C#N)C#N)ccc1OCc1nc2ccccc2[nH]1 [Compound 146, (4-((1H-benzo[d]imidazol-2-yl)methoxy)-3-methylphenyl)carbonohydrazonoyl dicyanide] | 64.6 | 70.5 |  | 444 |  | 31.1 |  | 82.7 | 47.2 | >100 | 88.4 | >100 | -35 | 133 |
| Cc1cc(NN=C(C#N)C#N)ccc1OCc1cscn1 [Compound 152, (3-methyl-4-(thiazol-4-ylmethoxy)phenyl)carbonohydrazonoyl dicyanide] | 73.2 | 56.6 |  | 54 |  | 72.3 |  | >100 | 17.2 | 96.1 | 95 | 75.5 | -37 | 117 |
| Cc1cc(NN=C(C#N)C#N)ccc1OCc1nc2ccccc2o1 [Compound 156, (4-(benzo[d]oxazol-2-ylmethoxy)-3-methylphenyl)carbonohydrazonoyl dicyanide] | 49.3 | 41.3 |  | 50 |  | 55.5 |  | 92.6 | 54 | 96 | 83.7 | 95.9 | -29 | 124 |
